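Briefly, cells in 96-well plates were exposed to five compound concentrations for 48 h, and endpoints were estimated by linear interpolation. The concentration for full growth arrest is given as TGI.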
Tests used:
Assay in all cases: NCI anticancer screen, dose series, 48 h
786-0 renal = system: 786-0 renal
A498 renal = system: A498 renal
A549 NSCLC = system: A549 NSCLC
ACHN renal = system: ACHN renal
BT-549 breast = system: BT-549 breast
CAKI-1 renal = system: CAKI-1 renal
CCRF-CEM leukemia = system: CCRF-CEM leukemia
COLO 205 colon = system: COLO 205 colon
DU-145 prostate = system: DU-145 prostate
EKVX NSCLC = system: EKVX NSCLC
HCC-2998 colon = system: HCC-2998 colon
HCT-116 colon = system: HCT-116 colon
HCT-15 colon = system: HCT-15 colon
HL-60(TB) leukemia = system: HL-60(TB) leukemia
HOP-62 NSCLC = system: HOP-62 NSCLC
HOP-92 NSCLC = system: HOP-92 NSCLC
HS 578T breast = system: HS 578T breast
HT29 colon = system: HT29 colon
IGROV1 ovarian = system: IGROV1 ovarian
K-562 leukemia = system: K-562 leukemia
KM12 colon = system: KM12 colon
LOX IMVI melanoma = system: LOX IMVI melanoma
M14 melanoma = system: M14 melanoma
MALME-3M melanoma = system: MALME-3M melanoma
MCF7 breast = system: MCF7 breast
MDA-MB-231 breast = system: MDA-MB-231 breast
MDA-MB-435 = system: MDA-MB-435
MDA-N = system: MDA-N
MOLT-4 leukemia = system: MOLT-4 leukemia
NCI-H226 lung = system: NCI-H226 lung
NCI-H23 lung = system: NCI-H23 lung
NCI-H460 lung = system: NCI-H460 lung
NCI-H522 lung = system: NCI-H522 lung
NCI/ADR-RES ovarian = system: NCI/ADR-RES ovarian
OVCAR-3 ovarian = system: OVCAR-3 ovarian
OVCAR-5 ovarian = system: OVCAR-5 ovarian
OVCAR-8 ovarian = system: OVCAR-8 ovarian
PC-3 prostate = system: PC-3 prostate
RPMI-8226 leukemia = system: RPMI-8226 leukemia
RXF 393 renal = system: RXF 393 renal
SF-268 CNS = system: SF-268 CNS
SF-295 CNS = system: SF-295 CNS
SF-539 CNS = system: SF-539 CNS
SK-MEL-28 melanoma = system: SK-MEL-28 melanoma
SK-MEL-5 melanoma = system: SK-MEL-5 melanoma
SK-OV-3 ovarian = system: SK-OV-3 ovarian
SNB-19 CNS = system: SNB-19 CNS
SNB-75 CNS = system: SNB-75 CNS
SR leukemia = system: SR leukemia
SW-620 colon = system: SW-620 colon
TK-10 renal = system: TK-10 renal
U251 CNS = system: U251 CNS
UACC-257 melanoma = system: UACC-257 melanoma
UACC-62 melanoma = system: UACC-62 melanoma
UO-31 renal = system: UO-31 renal
OVCAR-4 ovarian = system: OVCAR-4 ovarian
SN12C renal = system: SN12C renal
T-47D breast = system: T-47D breast
SK-MEL-2 melanoma = system: SK-MEL-2 melanoma

Measured: TGI

O=P(O)(O)C(NCC(O)CN1CCOCC1)P(=O)(O)O (centres undefined)
not listed: OVCAR-4 ovarian | SN12C renal | T-47D breast | SK-MEL-2 melanoma
> 100 µM: all other assays above

Cc1[nH]c2nccn2c(=O)c1CCCl
46.6 µM: MDA-N
62.5 µM: BT-549 breast
60 µM: HOP-62 NSCLC
93.5 µM: K-562 leukemia
53.7 µM: UACC-62 melanoma
42.2 µM: KM12 colon
50.8 µM: SW-620 colon
41.3 µM: MALME-3M melanoma
87.6 µM: OVCAR-8 ovarian
49.5 µM: NCI-H460 lung
96.7 µM: TK-10 renal
52.9 µM: MOLT-4 leukemia
36.6 µM: SF-539 CNS
57.2 µM: HL-60(TB) leukemia
55 µM: ACHN renal
61.8 µM: A498 renal | IGROV1 ovarian
64.6 µM: 786-0 renal
41.6 µM: NCI-H23 lung
33.6 µM: LOX IMVI melanoma
43.8 µM: U251 CNS
58.1 µM: NCI/ADR-RES ovarian
34.1 µM: HCC-2998 colon
40 µM: OVCAR-4 ovarian
45.4 µM: SN12C renal
90.7 µM: SR leukemia
85.4 µM: CCRF-CEM leukemia
31.3 µM: SK-MEL-5 melanoma
38.9 µM: RXF 393 renal
49.9 µM: NCI-H522 lung
91.4 µM: UO-31 renal
62.1 µM: OVCAR-3 ovarian
63 µM: SK-OV-3 ovarian
62.9 µM: RPMI-8226 leukemia
66.7 µM: DU-145 prostate
32.3 µM: HCT-116 colon
66.1 µM: HOP-92 NSCLC
not listed: CAKI-1 renal | MDA-MB-435 | SK-MEL-2 melanoma
> 100 µM: all other assays above

O=C(NNC(=O)c1ccccc1O)c1ccccc1O
> 34.8 µM: IGROV1 ovarian
0.944 µM: HL-60(TB) leukemia
> 91.7 µM: MOLT-4 leukemia
> 31.1 µM: SR leukemia
6.16 µM: SF-539 CNS
25.4 µM: M14 melanoma
> 78.4 µM: T-47D breast
3.6 µM: NCI-H522 lung
> 58.4 µM: SF-268 CNS
> 38.9 µM: COLO 205 colon
> 34.5 µM: SK-MEL-5 melanoma
not listed: HCC-2998 colon | HS 578T breast | RXF 393 renal | SNB-75 CNS | UACC-257 melanoma | OVCAR-4 ovarian
> 100 µM: all other assays above

NN/C(=N\S(=O)(=O)c1cc2ccccc2o1)Nc1ccc(Cl)cc1
64.2 µM: RXF 393 renal
97.2 µM: HS 578T breast
59.5 µM: HOP-92 NSCLC
85.8 µM: SNB-75 CNS
68.3 µM: NCI-H522 lung
not listed: HCC-2998 colon | MDA-MB-435
> 100 µM: all other assays above

N#Cc1nn(C(N)=O)c(N)c1C#N
not listed: HOP-92 NSCLC | LOX IMVI melanoma | MALME-3M melanoma | MDA-MB-435 | RPMI-8226 leukemia | RXF 393 renal
> 100 µM: all other assays above

From PubChem BioAssay (NCI)
